System: BRB breakdown in mice exposed to vascular endothelial growth factor (VEGF)
Assay: BRB breakdown quantitated with [3H]-mannitol tracer in mice given intravitreal VEGF
Format: in vivo, C57B/J6 mice
Description: Intraperitoneally administered radiolabeled tracer can be used to quantitate BRB breakdown in mice exposed to vascular endothelial growth factor (VEGF). This technique is particularly advantageous with neonatal mice because of the technical difficulty involved with intravascular injections. Also, the comparison of retinas from injected and control eyes to tissues without a blood-tissue barrier corrects for variations in the amount of isotope injected or absorbed into the circulation.
Ten six- to seven-week-old C57B/J6 mice (Jackson Labs, Bar Harbor, Me.) are weighed to determine the proper dosage of anesthesia and tracer required. Mice are anesthetized with a solution containing 25 mg/kg ketamine (Ketaset; Fort Dodge Animal Health, Fort Dodge, Iowa) and 4 mg/kg rompun (Tranquived; Vedco, St. Joseph, Mo.) diluted 1:10 in saline prior to injection. Five mice are subjected to gavage with 50 mg/kg N-benzoyl staurosporine for three days prior to intravitreal administration of VEGF; the other five mice are subjected to gavage with vehicle.
Tropicamide (1%) is used to dilate the pupils of anesthetized mice. Under a dissecting microscope, a Harvard injector (PLI 100) is used with a glass pipet pulled to a diameter of 13-20 μm to inject 1 μl of saline containing VEGF (R&D Systems, Minneapolis, Minn.). The eyes are entered posterior to the limbus, directing the pipet toward the optic nerve. The solution is then deposited just in front of the retina without inflicting any damage to the lens. […]
One ml NCSII (Amersham, Chicago, Ill.) solubilizing solution is added to each vial and the vials are incubated overnight in a 50° C. water bath. […] The specimens are counted on a Wallac 1409 Liquid Scintillation Counter (Gaithersburg, :Md.).
The counts per mg tissue are determined for treated (with N-benzoyl staurosporine) and untreated retina, lung, and kidney. Ratios of these values for treated or untreated retina/lung or kidney and for lung/kidney are calculated. […]

In the case of `CO[C@@H]1[C@H](N(C)C(=O)c2ccccc2)C[C@H]2O[C@]1(C)n1c3ccccc3c3c4c(c5c6ccccc6n2c5c31)C(=O)NC4` [N-benzoyl staurosporine], the “radioactivity in the retinas (leakage of radioactive tracer out of the retinal blood vessels)” value (50 mg/kg N-benzoyl staurosporine by gavage versus vehicle gavage, before intravitreal VEGF) is reported as “significantly less radioactivity”, the retina/kidney ratio (50 mg/kg by gavage for three days before intravitreal VEGF 10^-6 M, [3H]-mannitol at 6 hours, VEGF/vehicle 0.6806±0.1060, Student-t value 0.0201) is reported as 0.3881±0.0436 and the “retina/lung ratio (cpm per mg of retina/cpm per mg of lung)” value (50 mg/kg by gavage for three days before intravitreal VEGF 10^-6 M, [3H]-mannitol at 6 hours, VEGF/vehicle 0.8785±0.0946, Student-t value 0.0467) is reported as 0.6326±0.0656.
